Measured values: US20260265304A1, “PEPTIDE INHIBITORS OF FOCAL ADHESION KINASE ACTIVITY AND USES THEREOF” (Arizona Board of Regents on Behalf of the University of …, priority 2019, published 2026)
Values joined by “and” are separate entries in the source; they are usually repeats but may differ in a detail not shown here. Identical values can stand only once. Positions of bridges follow the written chain, without caps; N, C: chain ends. Non-standard residues stand in square brackets, D forms with d. Residues, ends and D or L forms follow the SMILES beside them. R8 = C=CCCCCCC[C@@](C)(N)C(=O)O; S5 = C=CCCC[C@](C)(N)C(=O)O

Columns and labels:
[1] = molecular target: T1, FAK FAT domain (biotinylated Avitag-FAT protein) (Homo sapiens, UniProt Q05397); test: Surface plasmon resonance (SPR) binding to immobilised FAT protein; conditions: for Kd: FAT protein immobilised, peptide 200 μM-0.01 μM, 1:1 binding model, read-out: SPR KD; for binding and inhibitory properties (SPR/FP) in words, compared to 1907: SAR discussion of SPR and FP data
T1 construct: biotinylated Avitag-FAT protein was diluted in running buffer
T1 sequence (Q05397 914-1045 limits assumed): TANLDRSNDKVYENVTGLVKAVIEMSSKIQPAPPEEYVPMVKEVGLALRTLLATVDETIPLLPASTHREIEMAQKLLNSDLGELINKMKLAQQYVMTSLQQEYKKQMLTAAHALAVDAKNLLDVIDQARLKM
Procedure: SPR binding studies were performed on a ForteBio Pioneer FE SPR system. In brief, a SADH Streptavidin in Dextran Hydrogel biosensor (ForteBio) was docked onto the flow cell and preconditioned with two injections of 10 mM NaOH, 1 M NaCl for 1 min at 50 μL/min. […] Empty channel 2 served as the reference control. After achieving a stable baseline, a concentration series (200 μM-0.01 μM) of peptide was prepared in final running buffer (100 mM Tris-HCl, 200 mM NaCl, 0.05% Tween-20, 5% DMSO) and injected using the OneStep gradient injection method at a flow rate of 75 μL/min. […] Raw SPR data were appropriately processed in Qdat software (ForteBio) by normalizing the baseline prior to injection, aligning the channels, subtraction of the reference channel, and blank subtraction. Kinetic data were fitted to a pseudo-first order 1:1 interaction binding model using to calculate KD. In addition, a steady-state model and Req data points were used to validate the binding affinity. Visual inspection of the SPR sensograms was performed to verify appropriate model fitting, lack of mass transport effects, return to baseline, and lack of irregular kinetics.

[2] = molecular target: T2, FAK FAT domain (paxillin-FAT binding) (Homo sapiens, UniProt Q05397); test: Competition fluorescence polarization (FP) assay, inhibition of TAMRA-LD2 binding to FAT; conditions: read-out: FP Ki
T2 construct: FP Buffer containing 20 μM FAT and 0.1 μM TAMRA-LD2
T2 sequence (Q05397 914-1045 limits assumed): T1 sequence (Q05397 914-1045 limits assumed)
Procedure: The FP assay buffer used was 20 mM Tris, 200 mM NaCl, 0.05% β-me, 0.1% Triton X-100, 5% glycerol, and 1× Halt protease inhibitor cocktail. […] Bodipy TMR FP optical module (2100-4100) was used as the mirror.
Wells with no FAT were used as a baseline value which was subtracted from the raw values to produce ΔmP values. The plate was read at every hour for four hours to test for time differences in IC50. The titration data was processed through GraphPad Prism to produce a dose response curve and a calculated IC50 with standard error (SE). A four-parameter dose-response inhibition model was utilized and the bottom fit was constrained to the lower plateau of the curve. Ki was determined from the following calculation:
P0 is the concentration of free protein and KD is calculated from the saturation curve. 150 is calculated by the following equation:
where PT is the total protein concentration, LT is the total labeled-ligand concentration, P0 is the positive root of P0^2+(KD+LT)*P0−PT, PL0=P−P0, PL50=PL0/2, L0=LT-PL0, and L50=LT-PL50.

Kd [1]	SMILES	Ki [2] [µM]	binding and inhibitory properties (SPR/FP) in words, compared to 1907 [1]
13.7 µM	CC(=O)N[C@@H](CC(N)=O)C(=O)N[C@@H](CC(C)C)C(=O)N[C@@H](CCCNC(=N)N)C(=O)N[C@@H](CCC(=O)O)C(=O)N[C@@]1(C)CCCC=CCCC[C@@](C)(C(=O)N[C@@H](CCCNC(=N)N)C(=O)N[C@@H](CCC(=O)O)C(=O)N[C@@H](CC(C)C)C(=O)N[C@@H](CC(N)=O)C(N)=O)NC(=O)[C@H](CC(C)C)NC(=O)[C@H](CCCNC(=N)N)NC(=O)[C@H](CC(=O)O)NC1=O [Peptide 1931, Ac-NLRES5DRLS5RELN-NH2] (Ac-NLRE[S5]DRL[S5]RELN-NH2; staple 5-9)	14.5	–
73.1 µM	CC(=O)N[C@@H](CC(N)=O)C(=O)N[C@@H](CC(C)C)C(=O)N[C@]1(C)CCCCCCC=CCCC[C@@](C)(C(=O)N[C@@H](CCC(=O)O)C(=O)N[C@@H](CC(C)C)C(=O)N[C@@H](CC(N)=O)C(N)=O)NC(=O)[C@H](Cc2c[nH]c3ccccc23)NC(=O)[C@H](CC(C)C)NC(=O)[C@H](CCCNC(=N)N)NC(=O)[C@H](CC(=O)O)NC(=O)[C@H](CC(C)C)NC(=O)[C@H](CCC(=O)O)NC1=O [Peptide 2007, Ac-NLR8ELDRLWS5ELN-NH2] (Ac-NL[R8]ELDRLW[S5]ELN-NH2; staple 3-10)	190	worse binding and inhibitory properties compared to 1907
68.9 µM	CC(=O)N[C@@H](CC(N)=O)C(=O)N[C@@H](CC(C)C)C(=O)N[C@@H](CO)C(=O)N[C@@H](CCC(=O)O)C(=O)N[C@@]1(C)CCCC=CCCC[C@@](C)(C(=O)N[C@@H](CC(C)C)C(=O)N[C@@H](CCC(=O)O)C(=O)N[C@@H](CC(C)C)C(=O)N[C@@H](CC(N)=O)C(N)=O)NC(=O)[C@H](CC(C)C)NC(=O)[C@H](CCCNC(=N)N)NC(=O)[C@H](CC(=O)O)NC1=O [Peptide 1919, Ac-NLSES5DRLS5LELN-NH2] (Ac-NLSE[S5]DRL[S5]LELN-NH2; staple 5-9)	38.6	did not show much activity compared to 1907
32.3 µM	CSCC[C@@H]1NC(=O)[C@H](CC(C)C)NC(=O)[C@H](CCC(=O)O)NC(=O)[C@H](CC(=O)O)NC(=O)[C@H](CC(C)C)NC(=O)[C@H](CCC(=O)O)NC(=O)[C@](C)(NC(=O)[C@@H](NC(=O)[C@H](C)NC(=O)[C@H](CO)NC(C)=O)[C@@H](C)O)CCCCCCC=CCCC[C@@](C)(C(=O)N[C@@H](CO)C(=O)N[C@@H](CC(C)C)C(=O)N[C@@H](CO)C(=O)N[C@@H](CC(=O)O)C(N)=O)NC1=O [Peptide 1916, Ac-SATR8ELDELMS5SLSD-NH2] (Ac-SAT[R8]ELDELM[S5]SLSD-NH2; staple 4-11)	47.5	did not have comparable activity to LD2-derived 1907
24.8 µM	CC(=O)N[C@@H](CC(N)=O)C(=O)N[C@@H](CC(C)C)C(=O)N[C@]1(C)CCCCCCC=CCCC[C@@](C)(C(=O)N[C@@H](CCC(N)=O)C(=O)N[C@@H](CC(C)C)C(=O)N[C@@H](CC(N)=O)C(N)=O)NC(=O)[C@H](CC(C)C)NC(=O)[C@H](CC(C)C)NC(=O)[C@H](CCCNC(=N)N)NC(=O)[C@H](CC(=O)O)NC(=O)[C@H](CC(C)C)NC(=O)[C@H](CCC(N)=O)NC1=O [Peptide 1910, Ac-NLR8QLDRLLS5QLN-NH2] (Ac-NL[R8]QLDRLL[S5]QLN-NH2; staple 3-10)	46.8	not as active as 1907

SMILES	Kd [1]	Ki [2] [µM]	binding and inhibitory properties (SPR/FP) in words, compared to 1907 [1]
CC(=O)N[C@@H](CO)C(=O)N[C@@H](CC(C)C)C(=O)NCC(=O)N[C@@H](CO)C(=O)N[C@@H](CC(N)=O)C(=O)N[C@@H](CC(C)C)C(=O)N[C@]1(C)CCCCCCC=CCCC[C@@](C)(C(=O)N[C@@H](CCC(=O)O)C(=O)N[C@@H](CC(C)C)C(=O)N[C@@H](CC(N)=O)C(=O)N[C@@H](C)C(=O)N[C@H](C(=O)N[C@@H](CCC(N)=O)C(=O)N[C@@H](Cc2c[nH]cn2)C(N)=O)C(C)C)NC(=O)[C@H](CC(C)C)NC(=O)[C@H](CC(C)C)NC(=O)[C@H](CCCNC(=N)N)NC(=O)[C@H](CC(=O)O)NC(=O)[C@H](CC(C)C)NC(=O)[C@H](CCC(=O)O)NC1=O [Peptide 1920, Ac-SLGSNLR8ELDRLLS5ELNAVQH-NH2] (Ac-SLGSNL[R8]ELDRLL[S5]ELNAVQH-NH2; staple 7-14)	7 µM and 6.95 µM	25	–
